In patent publication US9078899B2, “Pyrazolyl-based carboxamides II” (Grünenthal GmbH, priority 2013, dated 2015):

Molecular target: T1, CRAC channel (Homo sapiens, UniProt Q96D31)
T1 construct: host or cells: HEK293
Test: HEK Calcium Influx Assay (FLIPR)
Type: cell-based
Settings: 10 μM; endogenous SOC in HEK293 cells, thapsigargin store depletion, Ca2+ signal 9.5-10 min post-administration; read-out: % inhib.[@ 10 μM] FLIPR
Procedure: The effect of compounds of the invention on intracellular [Ca^2+] was tested in the HEK293 cell line (ECACC).
HEK293 cells were cultured in DMEM/F12/Glutamax (Gibco) containing 10% FCS (Gibco), and maintained at 37° C., 5% CO2. Cell were split twice a week [3*10^6 (Mon-Thu) and 1*10^6 (Thu-Mon) cells/50 ml medium in T-175 ZK culture flasks, respectively]. Twenty four hours pre-experiment, cells were seeded on 96 well plates (Poly-D-Lysine 96well Black/Clear Plate, BD Biocoat REF 356640) at a density of 40,000 cells/well in DMEM/F12 (Gibco) containing 10% FCS (Gibco), and maintained at 37° C., 5% CO2.
Prior to store-depletion, cell culture medium was removed and cells were loaded with the a Calcium-sensitive fluorescent dye comprised within the Calcium-4-assay kit (Molecular Devices) in nominally Ca^2+-free HBS buffer (140 mM NaCl, 4 mM KCl, 0.2 mM MgCl2, 11 mM D-glucose, and 10 mM HEPES, pH 7.4) according to manufacturer's instruction for 60 min at 37° C., 5% CO2.
Passive depletion of intracellular Ca^2+-stores was then triggered by employing the SERCA inhibitor thapsigargin (2 μM final) for 10 min in the dark (RT). To prevent immediate Ca^2+-entry via the activated Store-operated channels (SOCs), cells were maintained in Ca^2+-free HBS buffer comprising 100 μM EGTA during store-depletion.
Intracellular changes in [Ca^2+] were subsequently monitored with the FLIPR device (Molecular Devices). In brief, baseline imaging post-store depletion was allowed for 1 min before adjusting the extracellular buffer to 3 mM CaCl2. Increases in intracellular [Ca^2+] due to pre-activated SOC channels were monitored for 15 min until intracellular Ca^2+ levels had declined into a steady-state. Finally, compounds were administered and Ca^2+ signals were recorded for additional 10 min.
Inhibition of endogenous SOC in HEK293 cells was quantified employing the average Ca^2+ signal measured from 9.5-10 min post-administration. Zero percent inhibition (MAX) was defined as the Ca^2+ signal recorded from wells to which DMSO-only had been added instead of compound. Hundred percent inhibition (MIN) was defined as the signal obtained from wells in which cells haven't been treated with TG prior to Ca^2+ addition and to which DMSO-only had been added instead of compound. For routine IC50 determinations of compounds, 8 concentrations of a serial dilution (1:3.16) were tested, starting off from 10 μM. Reliable IC50's could consequently be determined only, if they were at least sub 2.5-3 μM.

T1 sequence (Q96D31 whole entry): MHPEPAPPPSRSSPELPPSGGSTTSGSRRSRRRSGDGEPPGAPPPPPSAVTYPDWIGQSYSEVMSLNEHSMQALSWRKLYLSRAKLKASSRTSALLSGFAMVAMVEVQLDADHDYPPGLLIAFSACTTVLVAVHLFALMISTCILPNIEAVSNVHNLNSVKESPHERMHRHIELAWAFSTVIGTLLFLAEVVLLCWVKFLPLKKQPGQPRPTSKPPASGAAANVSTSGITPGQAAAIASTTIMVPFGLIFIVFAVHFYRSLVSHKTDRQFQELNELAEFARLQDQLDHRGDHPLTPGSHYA

| SMILES | inhibition at 10 µM |
| --- | --- |
| Cn1nc(C(=O)Nc2ccccc2OC(F)(F)F)cc1-c1c(F)cccc1C(F)(F)F [Example 54, 5-[2-Fluoro-6-(trifluoromethyl)-phenyl]-1-methyl-N-[2-(trifluoromethyloxy)-phenyl]-1H-pyrazole-3-carboxylic acid amide] | 50 to 70% |
| COc1ccc(OC)c(-c2cc(C(=O)Nc3ccccc3F)nn2C)c1 [Example 33, 5-(2,5-Dimethoxyphenyl)-N-(2-fluorophenyl)-1-methyl-1H-pyrazole-3-carboxylic acid amide] | > 70% |
| Cn1nc(C(=O)Nc2c(F)cccc2F)cc1-c1cc(F)ccc1F [Example 5, 5-(2,5-Difluoro-phenyl)-N-(2,6-difluoro-phenyl)-1-methyl-1H-pyrazole-3-carboxylic acid amide] | 50 to 70% |
| Cn1nc(C(=O)Nc2ccccc2C(F)(F)F)cc1-c1c(F)cccc1C(F)(F)F [Example 60, 5-[2-Fluoro-6-(trifluoromethyl)-phenyl]-1-methyl-N-[2-(trifluoromethyl)-phenyl]-1H-pyrazole-3-carboxylic acid amide] | > 70% |
| Cc1cncc(F)c1NC(=O)c1cc(-c2c(F)cccc2C(F)(F)F)n(C)n1 [Example 63, N-(3-Fluoro-5-methyl-pyridin-4-yl)-5-[2-fluoro-6-(trifluoromethyl)-phenyl]-1-methyl-1H-pyrazole-3-carboxylic acid amide] | > 70% |
| Cc1cnccc1NC(=O)c1cc(-c2cc(Cl)ccc2C)n(C)n1 [Example 28, 5-(5-Chloro-2-methyl-phenyl)-1-methyl-N-(3-methyl-pyridin-4-yl)-1H-pyrazole-3-carboxylic acid amide] | 50 to 70% |
| COc1ccc(Cl)cc1-c1cc(C(=O)Nc2ccncc2F)nn1C [Example 22, 5-(5-Chloro-2-methoxy-phenyl)-N-(3-fluoro-pyridin-4-yl)-1-methyl-1H-pyrazole-3-carboxylic acid amide] | 50 to 70% |
| Cn1nc(C(=O)Nc2c(F)cccc2F)cc1-c1c(F)cccc1F [Example 50, N,5-Bis(2,6-difluoro-phenyl)-1-methyl-1H-pyrazole-3-carboxylic acid amide] | 50 to 70% |
| Cc1cccc(Cl)c1NC(=O)c1cc(-c2c(F)cccc2F)n(C)n1 [Example 52, N-(2-Chloro-6-methyl-phenyl)-5-(2,6-difluoro-phenyl)-1-methyl-1H-pyrazole-3-carboxylic acid amide] | 50 to 70% |
| COc1ccc(OC)c(-c2cc(C(=O)Nc3ccncc3F)nn2C)c1 [Example 19, 5-(2,5-Dimethoxyphenyl)-N-(3-fluoro-pyridin-4-yl)-1-methyl-1H-pyrazole-3-carboxylic acid amide] | > 70% |
| COc1ccc(OC)c(-c2cc(C(=O)Nc3ccncc3C(F)(F)F)nn2C)c1 [Example 14, 5-(2,5-Dimethoxyphenyl)-1-methyl-N-[3-(trifluoromethyl)-pyridin-4-yl]-1H-pyrazole-3-carboxylic acid amide] | 50 to 70% |
| Cn1nc(C(=O)Nc2c(F)cccc2F)cc1-c1cc(C(F)(F)F)ccc1F [Example 6, N-(2,6-Difluoro-phenyl)-5-[2-fluoro-5-(trifluoromethyl)-phenyl]-1-methyl-1H-pyrazole-3-carboxylic acid amide] | > 70% |
| Cc1ccncc1-c1cc(C(=O)Nc2ccccc2C(F)(F)F)nn1C [Example 64, 1-Methyl-5-(4-methyl-pyridin-3-yl)-N-[2-(trifluoromethyl)-phenyl]-1H-pyrazole-3-carboxylic acid amide] | > 70% |
| COc1cc(F)c(NC(=O)c2cc(-c3c(F)cccc3C(F)(F)F)n(C)n2)c(F)c1 [Example 58, N-(2,6-Difluoro-4-methoxy-phenyl)-5-[2-fluoro-6-(trifluoromethyl)-phenyl]-1-methyl-1H-pyrazole-3-carboxylic acid amide] | 50 to 70% |
